Here are results for four molecules from patent US20060003950A1, “Method of treating prostatic diseases using a combination of vitamin D analogues and other agents” (priority 2004, published 2006).

One series deals with T1, vitamin D receptor (VDR) (Homo sapiens, UniProt P11473).
T1 sequence (P11473 1-427): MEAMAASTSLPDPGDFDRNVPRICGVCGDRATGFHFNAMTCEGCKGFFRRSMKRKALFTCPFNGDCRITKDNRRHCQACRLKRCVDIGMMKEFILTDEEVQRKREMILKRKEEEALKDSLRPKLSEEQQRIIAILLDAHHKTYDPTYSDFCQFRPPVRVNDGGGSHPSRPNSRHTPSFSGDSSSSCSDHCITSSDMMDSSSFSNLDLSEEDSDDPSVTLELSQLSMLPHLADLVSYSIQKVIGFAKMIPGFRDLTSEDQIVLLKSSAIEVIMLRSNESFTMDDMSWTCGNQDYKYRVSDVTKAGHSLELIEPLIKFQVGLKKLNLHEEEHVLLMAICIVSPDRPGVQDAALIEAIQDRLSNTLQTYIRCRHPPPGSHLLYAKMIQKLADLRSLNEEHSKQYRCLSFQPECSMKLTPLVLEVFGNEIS
Description: Vitamin D-inducible growth hormone reporter production in transfected COS-1 cells.

Another series deals with T2, prostate VDR (Homo sapiens, UniProt P11473).
T2 construct: endogenous in cells
T2 sequence (P11473 1-427): T1 sequence (P11473 1-427)
Description: VDR binding in soluble extract of prostate-derived cell lines, competition with 3H-1α,25-(OH)2D3. As to conditions: 0.01-100 nM against 1 nM 3H-1α,25-(OH)2D3, 16-20 hr at 4° C. Here is the method:
Prostate-derived cell lines are cultured to near confluence, washed and harvested by scraping. Cells are washed by centrifugation, and the cell pellet resuspended in a buffered salt solution containing protease inhibitors. The cells are disrupted by sonication while cooling on ice. The supernatant obtained from centrifuging the disrupted cells at 207,000×g for 35 min at 4° C. is assayed for binding. […] Bound and free hormones are separated with hydroxylapatite using standard procedures. Specific binding is calculated by subtracting nonspecific binding obtained in the presence of a 250-fold excess of nonradioactive 1α,25-(OH)2D3 from the total binding measured.

Series [1] deals with LNCaP. Description: Inhibition of prostate cell proliferation (DNA amount), LNCaP. In kind it is cell-based, human. The conditions noted are these: 10^−11 M to 10^−7 M, 6-7 days. Here is the method: (§1) The cell lines, LNCaP and PC-3, which are derived from human prostate adenocarcinoma, are seeded in six-well tissue culture plates at a density of about 50,000 cells/plate. After the cells have attached and stabilized, about 2-3 days, the medium is replenished with medium containing vehicle or the active vitamin D analogue 1α,24-(OH)2D2, at concentrations from 10^−11 M to 10^−7 M. Medium containing test analogue or vehicle is replaced every three days. After 6-7 days, the medium is removed, the cells are rinsed, precipitated with cold 5% trichloroacetic acid, and washed with cold ethanol. The cells are solubilized with 0.2 N sodium hydroxide, and the amount of DNA determined by standard procedures.

The subject of a further series is PC-3. Description: Inhibition of prostate cell proliferation (DNA amount), PC-3. In kind it is cell-based, human. As to conditions: PC-3, 10^−11 M to 10^−7 M, 6-7 days. Here is the method: as §1
Series [2] has as its system LNCaP. Description: Stimulation of prostate cell differentiation (PSA), LNCaP. Type of series: cell-based, human. As to conditions: 10^−11 M to 10^−7 M, 6-7 days. Here is the method:
Using the techniques of Skowronski et al., 132 Endocrinology (1993) 1952-1960 and 136 Endocrinology (1995) 20-26, both of which are incorporated herein by reference, cells of the cell line, LNCaP, which is derived from a human metastatic prostate adenocarcinoma and known to express PSA, are seeded in six-well tissue culture plates at a density of about 50,000 cells/plate. After the cells have attached and stabilized, about 2-3 days, the medium is replenished with medium containing vehicle or the active vitamin D analogue, 1α,24-(OH)2D2, at concentrations from 10^−11 M to 10^−7 M. After 6-7 days, the medium is removed and stored at −20° C. for prostate specific antigen (PSA) analysis.
The cells from parallel cultures are rinsed, precipitated, and the amount of DNA determined by standard procedures. PSA is measured by standard known methods.

The test system of series [3] is Patients with advanced androgen-independent prostate cancer. Description: Open-labeled clinical study of oral 1α,24-(OH)2D2. Type of series: in vivo. The conditions noted are these: daily oral, first phase. The text has this:
On admission to the study, patients begin a course of therapy with oral 1α,24-(OH)2D2 lasting 26 weeks, while discontinuing any previous use of calcium supplements, vitamin D supplements, and vitamin D hormone replacement therapies. During treatment, the patients are monitored at regular intervals for: (1) hypercalcemia, hyperphosphatemia, hypercalciuria, hyperphosphaturia and other toxicity; (2) evidence of changes in the progression of metastatic disease; and (3) compliance with the prescribed test drug dosage.
The study is conducted in two phases. During the first phase, the maximal tolerated dosage (MTD) of daily oral 1α,24-(OH)2D2 is determined by administering progressively higher dosages to successive groups of patients. All doses are administered in the morning before breakfast. […] Subsequent groups of patients are treated with 50.0, 75.0 and 100.0 μg/day.
During the second phase, patients are treated with 1α,24-(OH)2D2 for 24 months at 0.5 and 1.0 times the MTD.

Description for vitamin D receptor (VDR): Cells in culture were co-transfected into Green monkey kidney, COS-1 cells with these two plasmids. One plasmid contained the gene for Growth Hormone (GH) under the control of the vitamin D responsive element (VDRE) and the other plasmid contained the structural gene for the vitamin D receptor (VDR). These transfected cultures were incubated with 1α,24-(OH)2D2 or 1α,25-(OH)2D3, and the production of growth hormone was measured.

Turning to `C=C1/C(=C\C=C2/CCC[C@]3(C)[C@@H]([C@H](C)/C=C/[C@@](C)(O)C(C)C)CC[C@@H]23)C[C@@H](O)C[C@@H]1O` [1α,24(S)—(OH)2D2, 1α,24(S)-dihydroxyvitamin D2], the “Total GH Production*” value at vitamin D receptor (VDR) (Molar Concentration 5 × 10^−8) stood at 1182 ng/mL; at vitamin D receptor (VDR) (Molar Concentration 5 × 10^−9) it was 1350 ng/mL; on vitamin D receptor (VDR) (Molar Concentration 5 × 10^−10), 425 ng/mL.
Turning to `C=C1/C(=C\C=C2/CCC[C@]3(C)[C@@H]([C@H](C)/C=C/[C@](C)(O)C(C)C)CC[C@@H]23)C[C@@H](O)C[C@@H]1O` [1α,24(R)—(OH)2D2, 1α,24(R)-dihydroxy-vitamin D2], the “Total GH Production*” value at vitamin D receptor (VDR) (Molar Concentration 1 × 10^−7) was 1300 ng/mL; on vitamin D receptor (VDR) (Molar Concentration 1 × 10^−8), 1100 ng/mL; on vitamin D receptor (VDR) (Molar Concentration 1 × 10^−9) it was 80 ng/mL.
Turning to `C=C1/C(=C\C=C2/CCC[C@]3(C)[C@@H]([C@H](C)/C=C/C(C)(O)C(C)C)CC[C@@H]23)C[C@H](O)C[C@H]1O` (stereo partly drawn) [1α,24-(OH)2D2, 1α,24-dihydroxyvitamin D2], the “affinity for prostate VDR” value at prostate VDR was “strong affinity”. For the same molecule, the “cell number versus control cultures” value with LNCaP [1] and with PC-3 was “significantly fewer cells than the control cultures” each time. Also, the “PSA versus control cultures, mass of PSA/cell” value in the series on LNCaP [2] was “significantly more PSA than control cultures”. Besides, in series [3], the “MTD relative to level achievable with 1α,25-(OH)2D3” value was 10- to 40 fold. Moreover, in series [3], the “maximal tolerated dosage (MTD)” value is recorded as “above 20.0 μg/day”.
Consider `C=C1CC[C@H](O)C/C1=C/C=C1\CCC[C@]2(C)[C@@H]([C@H](C)CCCC(C)(C)O)CC[C@@H]12` [25-OH-D3, reference compound], for which the figures for the “Total GH Production*” value at vitamin D receptor (VDR) (Molar Concentration 1 × 10^−5), on vitamin D receptor (VDR) (Molar Concentration 1 × 10^−6) and at vitamin D receptor (VDR) (Molar Concentration 1 × 10^−7) were 775 ng/mL, 1100 ng/mL and 245 ng/mL, respectively.
